From the supplement of paper PMC10307832

Legend:
Assay in all cases: relative viability (nuclei count vs DMSO), 5 days (fraction); higher = more cells survive
[1] = compound: C[C@]12O[C@H](C[C@]1(O)CO)n1c3ccccc3c3c4c(c5c6ccccc6n2c5c31)CNC4=O [Lestaurtinib]
Procedure, shortened: (§1)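 Five library-drug doses, separated by factors of √10, were pinned into 1536-well plates holding lung cancer cell lines after an overnight stay at 37 °C. Cells were fixed, permeabilised and Hoechst-stained in one step after 5 days without medium change, then imaged at 4×. Viability compares treated-well with vehicle-well nuclei, counted in MetaXpress, as a median across plates. Passing plates had control CV below 25% and at least one doubling.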

[2] = compound: C1/C(=C\C2=CC=CS2)/C(=O)/C(=C/C3=CC=CS3)/C1
Procedure, shortened: as §1

[3] = compound: C1=CC(=CC=C1C2=CC(=C(S2)NC(=O)N)C(=O)N)F [TPCA-1]
Procedure, shortened: as §1

Row | Cell Line | relative viability ([1]; 0.005 µM) | relative viability ([1]; 0.01581 µM) | relative viability ([1]; 0.05 µM) | relative viability ([1]; 0.1581 µM) | relative viability ([1]; 0.5 µM) | relative viability ([2]; 0.2 µM) | relative viability ([2]; 0.6325 µM) | relative viability ([2]; 2 µM) | relative viability ([2]; 6.325 µM) | relative viability ([2]; 20 µM) | relative viability ([3]; 0.04 µM) | relative viability ([3]; 0.1265 µM) | relative viability ([3]; 0.4 µM) | relative viability ([3]; 1.265 µM) | relative viability ([3]; 4 µM)
1 | NCI-H2009 | 0.999 | 1.04 | 0.82 | 0.762 | 0.366 | 1.03 | 0.98 | 0.972 | 0.936 | 0.994 | 1.12 | 1 | 1.01 | 0.859 | 0.834
2 | NCI-H2023 | 1.02 | 0.978 | 0.874 | 0.746 | 0.201 | 1 | 1.04 | 1.07 | 0.827 | 0.837 | 1.16 | 0.946 | 1.13 | 0.85 | 0.509
3 | NCI-H2085 | 0.989 | 0.99 | 0.996 | 1.01 | 0.786 | 1.08 | 1.01 | 1.01 | 0.898 | 0.961 | 0.989 | 0.989 | 0.988 | 0.897 | 0.875
4 | NCI-H2087 | 1.03 | 0.951 | 0.816 | 0.834 | 0.367 | 1.13 | 0.872 | 1.2 | 0.783 | 1.01 | 1.18 | 0.966 | 0.982 | 0.915 | 0.542
5 | NCI-H2126 | 1.02 | 1.1 | 0.891 | 0.842 | 0.729 | 1.03 | 1.01 | 1.07 | 0.896 | 0.979 | 0.997 | 0.918 | 1.01 | 0.89 | 0.809
6 | NCI-H2170 | 0.959 | 0.832 | 0.689 | 0.807 | 0.494 | 1 | 0.942 | 0.991 | 0.881 | 0.924 | 1.19 | 0.959 | 0.98 | 0.895 | 0.674
7 | NCI-H2228 | 1.25 | 1.11 | 0.698 | 0.483 | 0.258 | 1.01 | 0.989 | 1.15 | 0.748 | 1.1 | 1.09 | 0.785 | 1.16 | 0.984 | 0.666
8 | NCI-H2342 | 0.947 | 1.04 | 0.863 | 1.09 | 1.03 | 1.01 | 0.951 | 1.06 | 0.829 | 0.954 | 1 | 0.961 | 1.05 | 0.956 | 0.919
9 | NCI-H2347 | 0.979 | 1.1 | 0.9 | 0.72 | 0.654 | 1.1 | 1.03 | 1.02 | 0.969 | 1.03 | 1.13 | 0.961 | 1.01 | 0.873 | 0.929
10 | NCI-H2405 | 0.97 | 1.08 | 0.974 | 0.822 | 0.532 | 1.01 | 0.988 | 1.14 | 0.959 | 1.02 | 1.08 | 0.944 | 1.09 | 0.816 | 0.842
11 | NCI-H3122 | 1.06 | 1.11 | 0.981 | 1.11 | 0.615 | 1.03 | 0.986 | 1.05 | 0.892 | 0.975 | 1.04 | 0.924 | 1 | 1.01 | 0.991
12 | PC-3 [JPC-3] | 1.07 | 1.08 | 0.957 | 0.77 | 0.624 | 1.04 | 1.06 | 1.03 | 0.949 | 1.08 | 1.04 | 1 | 1.04 | 1.04 | 0.951
13 | PC-14 | 1.06 | 1.11 | 0.848 | 0.741 | 0.344 | 1.03 | 1.06 | 1 | 0.899 | 0.995 | 1.03 | 0.946 | 1.06 | 1.04 | 0.838
14 | RERF-LC-KJ | 1.03 | 1.09 | 0.847 | 0.827 | 0.558 | 0.984 | 1.04 | 1.02 | 0.878 | 0.927 | 1.02 | 0.895 | 0.982 | 0.93 | 0.826
15 | SK-LU-1 | 1.07 | 0.883 | 0.531 | 0.563 | 0.263 | 1.12 | 1.09 | 1.07 | 0.91 | 1.1 | 1.13 | 0.9 | 1.07 | 0.836 | 0.632
16 | SK-MES-1 | 1.02 | 0.931 | 0.57 | 0.394 | 0.259 | 1.05 | 1.03 | 1.02 | 0.906 | 0.972 | 1.06 | 0.864 | 0.976 | 0.881 | 0.604
17 | SW 900 | 0.916 | 1.08 | 0.966 | 1.06 | 0.885 | 0.9 | 0.947 | 0.87 | 0.874 | 0.864 | 0.663 | 0.719 | 0.922 | 0.775 | 0.654
18 | SW 1573 | 1.05 | 0.989 | 0.782 | 0.571 | 0.401 | 1.05 | 0.996 | 1.08 | 0.891 | 0.99 | 1.18 | 0.91 | 0.985 | 0.947 | 0.858
